Test results published in ChEMBL document CHEMBL1201862, “PubChem BioAssay data set” (2004).
Active and inactive are the calls of the source. For most assays here, no stated cut-off is given here; in the data, actives have a measured EC50 and inactives only a lower limit.

Legend:
[1] = biological target: T1, Replicative DNA helicase DnaB (Mycobacterium tuberculosis, UniProt P9WMR3); experiment: DnaB intein splicing inhibitors, dose response, biochemical, cell-free fluorescence (AID 449749); assay type: functional
T1 sequence (P9WMR3 whole entry): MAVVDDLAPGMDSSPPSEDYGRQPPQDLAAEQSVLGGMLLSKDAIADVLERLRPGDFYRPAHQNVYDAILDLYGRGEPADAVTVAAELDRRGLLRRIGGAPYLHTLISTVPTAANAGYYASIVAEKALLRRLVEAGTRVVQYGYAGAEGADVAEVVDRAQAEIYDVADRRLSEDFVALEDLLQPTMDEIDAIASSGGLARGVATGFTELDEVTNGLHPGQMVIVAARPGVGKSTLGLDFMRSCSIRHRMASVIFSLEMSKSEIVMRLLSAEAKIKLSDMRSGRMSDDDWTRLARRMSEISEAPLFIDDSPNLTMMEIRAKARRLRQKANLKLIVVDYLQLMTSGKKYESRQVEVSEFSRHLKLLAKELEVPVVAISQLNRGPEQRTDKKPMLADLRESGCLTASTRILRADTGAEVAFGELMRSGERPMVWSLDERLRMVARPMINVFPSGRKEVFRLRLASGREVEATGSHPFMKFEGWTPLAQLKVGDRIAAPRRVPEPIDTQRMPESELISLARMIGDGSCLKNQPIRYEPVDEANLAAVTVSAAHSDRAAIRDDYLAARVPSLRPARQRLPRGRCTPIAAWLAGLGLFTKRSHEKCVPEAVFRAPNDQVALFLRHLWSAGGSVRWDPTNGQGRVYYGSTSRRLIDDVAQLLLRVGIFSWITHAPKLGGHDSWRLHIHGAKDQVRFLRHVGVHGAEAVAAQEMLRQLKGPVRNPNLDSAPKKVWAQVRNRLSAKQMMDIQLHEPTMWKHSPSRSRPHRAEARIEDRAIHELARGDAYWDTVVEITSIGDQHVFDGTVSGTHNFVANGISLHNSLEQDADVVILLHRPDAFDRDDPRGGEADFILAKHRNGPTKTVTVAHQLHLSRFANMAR

[2] = biological target: Induced myeloid leukemia cell differentiation protein Mcl-1 (Homo sapiens, UniProt Q07820); assay type: functional
Protein RecA = biological target: T2, Protein RecA (Mycobacterium tuberculosis, UniProt P9WHJ3); experiment: Fluorescence Cell-Free Homogeneous Dose Retest to Identify Inhibitors of RecA-Intein Splicing Activity. [Related pubchem assays (depositor defined):AID2097, AID2223, AID489010, AID492950]; assay type: functional
T2 sequence (P9WHJ3 whole entry): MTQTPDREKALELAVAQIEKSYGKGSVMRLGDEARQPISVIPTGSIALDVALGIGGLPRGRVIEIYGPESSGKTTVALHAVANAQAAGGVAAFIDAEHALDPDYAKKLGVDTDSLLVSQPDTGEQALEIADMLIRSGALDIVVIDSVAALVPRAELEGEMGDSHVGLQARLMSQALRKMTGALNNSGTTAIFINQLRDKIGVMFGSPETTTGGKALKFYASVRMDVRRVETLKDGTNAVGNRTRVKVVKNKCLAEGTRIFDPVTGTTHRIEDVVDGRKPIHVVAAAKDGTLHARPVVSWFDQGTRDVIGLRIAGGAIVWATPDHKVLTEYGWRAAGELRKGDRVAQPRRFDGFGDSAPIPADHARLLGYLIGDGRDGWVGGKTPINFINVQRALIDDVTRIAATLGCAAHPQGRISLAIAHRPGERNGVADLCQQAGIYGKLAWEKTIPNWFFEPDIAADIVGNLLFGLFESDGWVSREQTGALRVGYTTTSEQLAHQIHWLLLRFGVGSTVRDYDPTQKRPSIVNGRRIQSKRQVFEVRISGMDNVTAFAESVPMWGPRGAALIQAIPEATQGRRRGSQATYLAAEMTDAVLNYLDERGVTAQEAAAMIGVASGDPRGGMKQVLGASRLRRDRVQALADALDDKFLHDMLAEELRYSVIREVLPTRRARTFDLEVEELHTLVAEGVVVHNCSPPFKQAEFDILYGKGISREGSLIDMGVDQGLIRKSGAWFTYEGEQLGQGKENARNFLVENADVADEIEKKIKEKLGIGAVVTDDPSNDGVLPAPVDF

[3] = Luminescence Cell-Based Dose Response HTS to Identify Inhibitors of 5'UTR Stem-Loop Driven Prion Protein mRNA Translation in H4 Neuroglioblastoma Cells. [Related pubchem assays: 1827 (Project Summary), 1813 (Primary HTS)]; assay type: functional
[4] = biological target: Luciferin 4-monooxygenase (Photinus pyralis, UniProt P08659); experiment: Counter Screen for Luciferase-based Assay Positives. [Related pubchem assays: 620, 618, 411 ]
[5] = inhibitors of SNCA 5'UTR-driven reporter translation, confirmation, H4 neuroglioma cells, luminescence (AID 1988); assay type: functional, cell-based
HT-1080 = experiment: cytotoxicity in HT1080 fibrosarcoma cells, cell-based, fluorescence readout (AID 620); assay type: functional; conditions: Homo sapiens
[6] = biological target: T3, Heat shock factor protein 1 (Mus musculus, UniProt P38532); experiment: inhibition of MG132-induced HSE-luciferase signal, confirmation, cell-based, NIH3T3, luminescence, dose retest (AID 2382); assay type: functional;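 further: NIH3T3 fibroblasts with HSF1-driven luciferase reporter stressed by proteasome inhibitor MG132; luminescence from HSF1-driven luciferase expression after 8 hours of MG132 stress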
T3 sequence (P38532 whole entry): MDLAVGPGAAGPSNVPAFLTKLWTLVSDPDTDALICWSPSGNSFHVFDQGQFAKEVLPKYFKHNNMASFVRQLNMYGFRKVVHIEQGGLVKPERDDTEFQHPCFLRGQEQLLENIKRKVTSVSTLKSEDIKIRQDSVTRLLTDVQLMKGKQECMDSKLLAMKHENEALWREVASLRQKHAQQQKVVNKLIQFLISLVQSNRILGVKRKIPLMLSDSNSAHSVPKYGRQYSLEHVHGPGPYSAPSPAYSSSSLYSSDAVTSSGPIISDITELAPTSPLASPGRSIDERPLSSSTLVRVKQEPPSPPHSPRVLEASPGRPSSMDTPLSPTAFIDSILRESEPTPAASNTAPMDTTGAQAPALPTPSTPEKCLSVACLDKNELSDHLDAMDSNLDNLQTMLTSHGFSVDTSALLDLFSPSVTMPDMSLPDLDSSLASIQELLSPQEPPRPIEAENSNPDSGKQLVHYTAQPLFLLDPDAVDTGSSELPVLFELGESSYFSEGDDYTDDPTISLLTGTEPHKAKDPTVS

[7] = inhibitors of firefly luciferase expression or activity, dose response, H4 neuroglioma cells, luminescence (AID 1990); assay type: functional, cell-based
[8] = biological target: T4, Rac GTPase-activating protein 1 (Homo sapiens, UniProt Q9H0H5); experiment: MgcRacGAP GTPase-activating activity inhibitors, confirmation, biochemical, ADP Hunter fluorescence, primary and confirmatory (AID 624330); assay type: functional
T4 sequence (Q9H0H5 whole entry): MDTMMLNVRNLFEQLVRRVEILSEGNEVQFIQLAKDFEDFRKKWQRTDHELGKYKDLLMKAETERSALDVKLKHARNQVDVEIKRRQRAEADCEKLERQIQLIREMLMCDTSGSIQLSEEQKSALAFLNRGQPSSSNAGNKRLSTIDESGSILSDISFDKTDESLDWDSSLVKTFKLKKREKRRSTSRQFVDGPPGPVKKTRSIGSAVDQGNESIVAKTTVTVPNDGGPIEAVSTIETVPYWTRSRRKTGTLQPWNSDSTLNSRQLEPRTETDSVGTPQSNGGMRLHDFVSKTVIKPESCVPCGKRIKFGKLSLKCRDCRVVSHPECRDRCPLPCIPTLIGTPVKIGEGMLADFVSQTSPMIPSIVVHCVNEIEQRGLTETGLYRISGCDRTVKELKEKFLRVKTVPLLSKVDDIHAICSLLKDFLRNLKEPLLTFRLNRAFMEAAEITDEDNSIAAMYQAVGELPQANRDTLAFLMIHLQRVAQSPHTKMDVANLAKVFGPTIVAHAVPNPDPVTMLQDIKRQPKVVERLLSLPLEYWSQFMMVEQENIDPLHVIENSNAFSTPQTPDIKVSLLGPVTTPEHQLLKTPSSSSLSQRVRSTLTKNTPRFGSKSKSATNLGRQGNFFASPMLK

[9] = Luminescence Cell-Based Dose Confirmation HTS to Identify Activators of 5'UTR Stem-Loop Driven Alpha-Synuclein mRNA Translation in H4 Neuroglioblastoma Cells. [Related pubchem assays: 1829 (Project Summary), 1814 (Primary HTS)]; assay type: functional
[10] = Luminescence Cell-Based Dose Response HTS to Identify Activators of Luciferase Translation or Activity in H4 […] Cells. [Related pubchem assays: 1829 (Project Summary), 1814 (Primary HTS)]; assay type: functional
H4 = experiment: Luminescence Cell-Based Dose Response HTS to Identify Activators of 5'UTR Stem-Loop Driven Prion Protein mRNA Translation in H4 Neuroglioblastoma Cells. [Related pubchem assays: 1829 (Project Summary), 1814 (Primary HTS)]; assay type: functional; conditions: Homo sapiens
Protein skinhead-1 = biological target: T5, Protein skinhead-1 (Caenorhabditis elegans, UniProt P34707); assay type: functional
T5 sequence (P34707 whole entry): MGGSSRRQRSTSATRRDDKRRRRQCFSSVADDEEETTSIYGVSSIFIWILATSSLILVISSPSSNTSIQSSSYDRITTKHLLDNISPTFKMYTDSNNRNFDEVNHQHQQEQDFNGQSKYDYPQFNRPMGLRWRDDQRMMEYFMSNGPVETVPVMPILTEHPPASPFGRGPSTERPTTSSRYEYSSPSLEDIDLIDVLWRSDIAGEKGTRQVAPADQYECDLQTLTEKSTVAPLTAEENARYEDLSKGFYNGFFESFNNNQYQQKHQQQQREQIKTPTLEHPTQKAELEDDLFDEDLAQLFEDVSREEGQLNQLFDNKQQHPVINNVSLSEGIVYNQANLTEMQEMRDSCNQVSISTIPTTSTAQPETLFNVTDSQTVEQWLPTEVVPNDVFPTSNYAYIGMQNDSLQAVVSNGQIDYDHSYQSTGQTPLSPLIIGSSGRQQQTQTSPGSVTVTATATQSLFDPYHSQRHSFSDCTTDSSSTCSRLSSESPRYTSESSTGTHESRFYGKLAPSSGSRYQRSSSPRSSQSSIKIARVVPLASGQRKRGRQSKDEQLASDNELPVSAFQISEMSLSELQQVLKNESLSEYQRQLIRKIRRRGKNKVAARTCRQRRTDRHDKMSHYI

Sequence of Induced myeloid leukemia cell differentiation protein Mcl-1 (Q07820 whole entry): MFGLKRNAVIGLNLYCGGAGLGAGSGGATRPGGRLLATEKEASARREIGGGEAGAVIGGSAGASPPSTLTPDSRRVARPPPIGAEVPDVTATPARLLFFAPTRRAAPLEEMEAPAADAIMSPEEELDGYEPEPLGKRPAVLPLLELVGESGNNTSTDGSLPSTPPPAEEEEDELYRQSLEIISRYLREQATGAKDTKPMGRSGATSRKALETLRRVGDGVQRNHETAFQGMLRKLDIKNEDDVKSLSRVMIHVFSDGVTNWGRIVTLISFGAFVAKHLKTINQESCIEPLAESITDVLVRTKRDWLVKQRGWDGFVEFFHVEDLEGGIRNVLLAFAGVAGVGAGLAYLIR
Sequence of Luciferin 4-monooxygenase (P08659 whole entry): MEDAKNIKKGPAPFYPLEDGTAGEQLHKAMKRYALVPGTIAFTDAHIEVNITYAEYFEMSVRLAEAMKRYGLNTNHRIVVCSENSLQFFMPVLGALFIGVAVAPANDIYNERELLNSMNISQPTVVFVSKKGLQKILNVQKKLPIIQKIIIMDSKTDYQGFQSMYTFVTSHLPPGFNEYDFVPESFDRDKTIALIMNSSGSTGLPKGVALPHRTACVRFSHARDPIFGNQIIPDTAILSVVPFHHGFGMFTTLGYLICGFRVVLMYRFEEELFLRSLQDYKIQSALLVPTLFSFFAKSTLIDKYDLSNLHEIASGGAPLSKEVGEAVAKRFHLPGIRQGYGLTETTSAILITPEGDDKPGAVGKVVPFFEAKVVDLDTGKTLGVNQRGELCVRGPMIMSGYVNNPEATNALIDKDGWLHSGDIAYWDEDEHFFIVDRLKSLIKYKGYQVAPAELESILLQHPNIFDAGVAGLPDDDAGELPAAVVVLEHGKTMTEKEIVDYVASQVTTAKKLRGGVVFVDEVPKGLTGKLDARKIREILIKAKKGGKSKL

**Q.** For `CCC(=O)N(CC)C1=C(O)C(=O)c2ccccc2C1=O`, which AC50 [1] is on record?
**A.** The AC50 was 14.5 µM (active).

**Q.** And the IC50 [2]?
**A.** Its IC50 is 1.44 µM (active).

**Q.** And the EC50 (Protein RecA)?
**A.** The EC50 was 8.5 µM (active).

**Q.** For `O=C(O)CCSc1nnc(-c2ccc3c(c2)OCO3)o1`, which EC50 [3] is on record?
**A.** Its EC50 is > 120 µM (not active).

**Q.** What about the EC50 [4] of the same compound?
**A.** The EC50 was 27.7 µM (active).

**Q.** And the EC50 [5]?
**A.** Its EC50 is 10.6 µM (active).

**Q.** And the EC50 (HT-1080)?
**A.** Its EC50 is > 50 µM (not active).

**Q.** And the EC50 [6]?
**A.** The EC50 was 3.01 µM (active).

**Q.** What about the EC50 [7] of the same compound?
**A.** The EC50 was 8.07 µM (active).

**Q.** For `Cc1ccc(N2CC(C(=O)Nc3ccc(N(C)C)cc3)CC2=O)cc1C` (stereo not drawn), which IC50 [8] is on record?
**A.** The IC50 was 54.2 µM (active).

**Q.** What about the IC50 [2] of the same compound?
**A.** Its IC50 is 3.29 µM (not active).

**Q.** For `O=C(Nc1ccc2oc(-c3ccccc3)nc2c1)c1cccs1`, which EC50 [9] is on record?
**A.** The EC50 was < 100 nM (active).

**Q.** And the EC50 [10]?
**A.** The EC50 was 131 nM (active).

**Q.** What about the EC50 (H4) of the same compound?
**A.** Its EC50 is > 120 µM (not active).

**Q.** Which IC50 [2] does the source give for `CCOc1ccc(C(=O)Nc2cc(NC(=O)c3ccc(OCC)c(Cl)c3)cc(C(=O)O)c2)cc1Cl` here?
**A.** The IC50 was 14.3 µM (active).

**Q.** Which EC50 [4] does the source give for `CCOc1ccc(-c2nnc(-c3ccco3)o2)cc1` here?
**A.** The EC50 was < 0.2 µM (active).

**Q.** What about the EC50 (HT-1080) of the same compound?
**A.** The EC50 was > 50 µM (not active).

**Q.** What about the IC50 (Protein skinhead-1) of the same compound?
**A.** Its IC50 is 28.9 µM (active).
